Values of other authors in US9604977B2, “Bicyclic thiophenylamide compounds” (Hoffmann-La Roche Inc., priority 2012, dated 2017).

Key:
[1] = tested on: ob/ob mice
[2] = tested on: ApoE KO mice
[3] = tested on: mice under HF diet

Row | Compound | glucose uptake in muscle and adipose ([1]; clamp study in ob/ob mice) | hepatic glucose production ([1]; clamp study in ob/ob mice) | body weight and energy consumption ([1]; ob/ob mice) | hepatic steatosis ([1]; ob/ob mice) | atherosclerotic plaques formation [2] | insulin and glucose tolerance [3] | plasma triglyceride and free fatty acid [3]
1 | CCc1c(-c2ccccc2)c(-c2ccccc2)nn1-c1ccccc1-c1cccc(OCC(=O)O)c1 [BMS309403] | increased glucose uptake in muscle and adipose | reduction of hepatic glucose production | no change in body weight and energy consumption | reduction in hepatic steatosis | decrease in atherosclerotic plaques formation | – | –
2 | Cc1noc(-c2c(NC(=O)C3=C(C(=O)O)CCCC3)sc3c2CCCC3)n1 [Compound 3] | – | – | – | – | – | no improvement in insulin and glucose tolerance | reduction in plasma triglyceride and free fatty acid
